Measurements from patent publication US7507568B2, “Three dimensional coordinates of HPTPbeta” (The Proctor & Gamble Company, priority 2002, dated 2009).

Target: T1, PTPbeta catalytic domain [SEQ ID NO: 7] (Homo sapiens, UniProt P23467)
T1 construct: made in house; host or cells: Escherichia coli BL21-RIL
Test: Inhibition of HPTPbeta (relative inhibitor potency, stated in words)
Assay type: biochemical
Details: qualitative comparison; no numerical values or assay method printed

T1 sequence (P23467 with tags, fused parts or gaps): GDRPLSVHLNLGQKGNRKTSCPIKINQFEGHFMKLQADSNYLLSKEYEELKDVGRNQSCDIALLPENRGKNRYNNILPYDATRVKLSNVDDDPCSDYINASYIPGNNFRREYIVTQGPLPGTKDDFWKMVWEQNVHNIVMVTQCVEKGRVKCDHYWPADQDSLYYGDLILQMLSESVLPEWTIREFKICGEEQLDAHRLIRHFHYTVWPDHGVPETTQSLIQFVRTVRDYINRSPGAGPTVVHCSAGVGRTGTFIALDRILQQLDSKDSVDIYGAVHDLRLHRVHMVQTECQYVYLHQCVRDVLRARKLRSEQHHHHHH

inhibitor potency relative to Compound 1: more potent inhibitor than Compound 1
Compound: CNC(=O)[C@H](Cc1ccc(NS(=O)(=O)O)cc1)NC(=O)C(Cc1ccc(O)cc1)NC(=O)OC(C)(C)C (stereo in doubt) [Compound 2, {2-(4-Hydroxy-phenyl)-1-[1-methylcarbamoyl-2-(4-sulfoamino-phenyl)-ethylcarbamoyl]-ethyl}-carbamic acid tert-butyl ester]
